This is an account of results in patent US20230092890A1, “1, 3, 4-Oxadiazole derivative compounds as histone deacetylase 6 inhibitor, and the pharmaceutical composition comprising the same” (Chong Kun Dang Pharmaceutical Corp., priority 2019, published 2023).

The target in one assay is T1, HDAC1 (Homo sapiens, UniProt Q13547).
T1 construct: purchased Enzolifesciences BML-AK511
Description: HDAC enzyme activity inhibition (in vitro), HDAC1 Fluorimetric Drug Discovery Assay Kit. It counts as biochemical. As to conditions: samples at 100, 1000 and 10000 nM; 37° C. 60 minutes; fluorescence Ex 390, Em 460; read-out: HDAC1 IC50. In short, it runs like this:
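HDAC1 was tested at 100, 1000 and 10000 nM and recombinant human HDAC6 at 0.1, 1, 10, 100 and 1000 nM. Enzyme reactions ran 60 min at 37° C, then developer was added for 30 min at 37° C, and fluorescence (Ex 390, Em 460) was read.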

The target in another assay is T2, HDAC6 human recombinant (Homo sapiens, UniProt Q9UBN7).
T2 construct: purchased Calbiochem 382180
T2 sequence (Q9UBN7 1-1215): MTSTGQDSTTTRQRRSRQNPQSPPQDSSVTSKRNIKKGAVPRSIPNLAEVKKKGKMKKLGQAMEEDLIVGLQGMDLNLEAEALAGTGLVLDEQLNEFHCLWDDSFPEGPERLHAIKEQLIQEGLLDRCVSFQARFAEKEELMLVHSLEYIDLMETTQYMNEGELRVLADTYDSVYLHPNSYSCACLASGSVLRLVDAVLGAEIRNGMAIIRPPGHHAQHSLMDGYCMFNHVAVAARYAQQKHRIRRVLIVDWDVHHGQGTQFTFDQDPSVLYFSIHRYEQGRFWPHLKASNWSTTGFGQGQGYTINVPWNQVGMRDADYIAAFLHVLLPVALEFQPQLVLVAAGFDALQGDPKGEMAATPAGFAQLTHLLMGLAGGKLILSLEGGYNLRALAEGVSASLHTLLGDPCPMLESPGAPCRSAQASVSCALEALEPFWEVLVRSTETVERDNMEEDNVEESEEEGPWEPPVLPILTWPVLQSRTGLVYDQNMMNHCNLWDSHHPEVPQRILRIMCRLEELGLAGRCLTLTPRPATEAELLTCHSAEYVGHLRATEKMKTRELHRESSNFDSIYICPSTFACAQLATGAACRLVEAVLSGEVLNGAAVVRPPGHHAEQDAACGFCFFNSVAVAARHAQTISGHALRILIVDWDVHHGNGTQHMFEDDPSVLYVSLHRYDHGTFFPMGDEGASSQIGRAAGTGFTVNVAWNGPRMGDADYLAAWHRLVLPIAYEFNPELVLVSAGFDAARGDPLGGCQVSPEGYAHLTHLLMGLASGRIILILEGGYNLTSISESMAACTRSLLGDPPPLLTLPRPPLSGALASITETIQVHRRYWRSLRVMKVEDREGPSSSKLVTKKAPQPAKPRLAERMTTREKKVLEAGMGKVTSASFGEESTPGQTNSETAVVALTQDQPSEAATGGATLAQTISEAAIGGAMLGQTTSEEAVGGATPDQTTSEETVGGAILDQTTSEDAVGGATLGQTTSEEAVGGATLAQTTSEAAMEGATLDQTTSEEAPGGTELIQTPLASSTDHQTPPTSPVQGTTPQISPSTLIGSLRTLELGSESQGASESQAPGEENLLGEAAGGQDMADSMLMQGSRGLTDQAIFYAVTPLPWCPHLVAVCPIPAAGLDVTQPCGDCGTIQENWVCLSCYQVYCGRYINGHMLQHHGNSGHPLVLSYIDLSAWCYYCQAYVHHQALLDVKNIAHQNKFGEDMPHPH
Description: HDAC enzyme activity inhibition (in vitro), HDAC6 assay. It counts as biochemical. To be noted: samples at 0.1, 1, 10, 100 and 1000 nM; 37° C. 60 minutes; fluorescence Ex 390, Em 460; read-out: HDAC6 IC50. In short, it runs like this: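 HDAC6 human recombinant enzyme with fluorimetric substrate; […]. Reaction 60 min at 37° C, then developer 30 min at 37° C; fluorescence read at Ex 390/Em 460.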

T1 sequence (Q13547 whole entry): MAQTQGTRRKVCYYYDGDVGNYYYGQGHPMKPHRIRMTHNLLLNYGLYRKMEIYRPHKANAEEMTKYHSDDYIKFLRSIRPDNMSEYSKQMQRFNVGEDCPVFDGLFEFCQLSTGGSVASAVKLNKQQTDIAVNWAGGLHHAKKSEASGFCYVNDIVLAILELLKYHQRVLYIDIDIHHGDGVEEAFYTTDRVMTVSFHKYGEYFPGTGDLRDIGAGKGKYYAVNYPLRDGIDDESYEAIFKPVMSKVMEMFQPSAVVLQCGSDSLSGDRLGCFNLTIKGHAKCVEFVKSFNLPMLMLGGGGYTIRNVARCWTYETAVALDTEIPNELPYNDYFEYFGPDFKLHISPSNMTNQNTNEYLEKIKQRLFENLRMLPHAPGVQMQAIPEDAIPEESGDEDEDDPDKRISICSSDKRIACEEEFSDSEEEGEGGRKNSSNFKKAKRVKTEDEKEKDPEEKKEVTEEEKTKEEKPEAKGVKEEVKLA

With `CN1CCC(n2c(=O)n(Cc3ccc(-c4nnc(C(F)F)o4)cn3)c3ncccc32)CC1` [Compound 107, 3-((5-(5-(difluoromethyl)-1,3,4-oxadiazole-2-yl)pyridine-2-yl)methyl)-1-(1-methylpiperidine-4-yl)-1,3-dihydro-2H-imidazo[4,5-b]pyridine-2-one], the results for the half-maximal inhibitory concentration (IC50) at HDAC1 and at HDAC6 human recombinant were greater than 10000 nM and 174 nM, respectively.
Taken in the same sequence, the figures for `O=c1n(Cc2ccc(-c3nnc(C(F)F)o3)cn2)c2ncccc2n1C1CCN(C2COC2)CC1` [Compound 108] were greater than 10000 nM and 148 nM.
As for `O=c1n(Cc2ccc(-c3nnc(C(F)(F)F)o3)cn2)c2ccccc2n1C1CC2(COC2)C1` [Compound 109, 1-(2-oxaspiro[3.3]heptane-6-yl)-3-((5-(5-(trifluoromethyl)-1,3,4-oxadiazole-2-yl)pyridine-2-yl)methyl)-1,3-dihydro-2H-benzo[d]imidazole-2-one], the figures for the IC50 on HDAC1 and at HDAC6 human recombinant were greater than 10000 nM and 623 nM, respectively.
Taken in the same sequence, the figures for `Cn1c(=O)n(Cc2ccc(-c3nnc(C(F)F)o3)cc2F)c2cc(-c3cccnc3)ccc21` [Compound 110, 3-(4-(5-(difluoromethyl)-1,3,4-oxadiazole-2-yl)-2-fluorobenzyl)-1-methyl-5-(pyridine-3-yl)-1,3-dihydro-2H-benzo[d]imidazole-2-one] were greater than 10000 nM and 234 nM.
For `Cn1c(=O)n(Cc2ccc(-c3nnc(C(F)F)o3)cc2F)c2cc(-c3ccncc3)ccc21` [Compound 111, 3-(4-(5-(difluoromethyl)-1,3,4-oxadiazole-2-yl)-2-fluorobenzyl)-1-methyl-5-(pyridine-4-yl)-1,3-dihydro-2H-benzo[d]imidazole-2-one] the same measures were greater than 10000 nM and 322 nM.
For the compound `Cn1c(=O)n(Cc2ccc(-c3nnc(C(F)F)o3)cc2F)c2cc(-c3cccc(F)c3)ccc21` [Compound 112, 3-(4-(5-(difluoromethyl)-1,3,4-oxadiazole-2-yl)-2-fluorobenzyl)-5-(3-fluorophenyl)-1-m ethyl-1,3-dihydro-2H-benzo[d]imidazole-2-one], the IC50 at HDAC1 is greater than 10000 nM; on HDAC6 human recombinant it was 864 nM.
For `CN1CCC(n2c(=O)n(Cc3ccc(-c4nnc(C(F)F)o4)cc3F)c3cc(F)c(Br)cc32)CC1` [Compound 113, 5-bromo-1-(4-(5-(difluoromethyl)-1,3,4-oxadiazole-2-yl)-2-fluorobenzyl)-6-fluoro-3-(1-methylpiperidine-4-yl)-1,3-dihydro-2H-benzo[d]imidazole-2-one] the same measures were greater than 10000 nM and 65 nM.
For `CN1CCC(n2c(=O)n(Cc3ccc(-c4nnc(C(F)F)o4)cc3F)c3cc(F)c(-c4ccco4)cc32)CC1` [Compound 114, 1-(4-(5-(difluoromethyl)-1,3,4-oxadiazole-2-yl)-2-fluorobenzyl)-6-fluoro-5-(furan-2-yl)-3-(1-methylpiperidine-4-yl)-1,3-dihydro-2H-benzo[d]imidazole-2-one] the same measures were greater than 10000 nM and 88 nM.
Taken in the same sequence, the figures for `CN1CCC(n2c(=O)n(Cc3ccc(-c4nnc(C(F)F)o4)cc3F)c3cc(F)c(-c4ccoc4)cc32)CC1` [Compound 115, 1-(4-(5-(difluoromethyl)-1,3,4-oxadiazole-2-yl)-2-fluorobenzyl)-6-fluoro-5-(furan-3-yl)-3-(1-methylpiperidine-4-yl)-1,3-dihydro-2H-benzo[d]imidazole-2-one] were greater than 10000 nM and 77 nM.
On to `CN1CCC(n2c(=O)n(Cc3ccc(-c4nnc(C(F)F)o4)cc3F)c3cc(F)c(-c4ccccc4F)cc32)CC1` [Compound 116, 1-(4-(5-(difluoromethyl)-1,3,4-oxadiazole-2-yl)-2-fluorobenzyl)-6-fluoro-5-(2-fluorophenyl)-3-(1-methylpiperidine-4-yl)-1,3-dihydro-2H-benzo[d]imidazole-2-one], for which the IC50 at HDAC1 is greater than 10000 nM; at HDAC6 human recombinant, 84 nM.
For `CN1CCC(n2c(=O)n(Cc3ccc(-c4nnc(C(F)F)o4)cc3F)c3cc(F)c(-c4cccnc4)cc32)CC1` [Compound 117, 1-(4-(5-(difluoromethyl)-1,3,4-oxadiazole-2-yl)-2-fluorobenzyl)-6-fluoro-3-(1-methylpiperidine-4-yl)-5-(pyridine-3-yl)-1,3-dihydro-2H-benzo[d]imidazole-2-one] the same measures were greater than 10000 nM and 24 nM.
Taken in the same sequence, the figures for `CN1CCC(n2c(=O)n(Cc3ccc(-c4nnc(C(F)F)o4)cc3F)c3cc(F)c(-c4ccncc4)cc32)CC1` [Compound 118, 1-(4-(5-(difluoromethyl)-1,3,4-oxadiazole-2-yl)-2-fluorobenzyl)-6-fluoro-3-(1-methylpiperidine-4-yl)-5-(pyridine-4-yl)-1,3-dihydro-2H-benzo[d]imidazole-2-one] were greater than 10000 nM and 42 nM.
Consider `CN1CCC(n2c(=O)n(Cc3ccc(-c4nnc(C(F)F)o4)cc3F)c3cc(Br)ccc32)CC1` [Compound 119, 5-bromo-3-(4-(5-(difluoromethyl)-1,3,4-oxadiazole-2-yl)-2-fluorobenzyl)-1-(1-methylpiperidine-4-yl)-1,3-dihydro-2H-benzo[d]imidazole-2-one], for which the half-maximal inhibitory concentration (IC50) is greater than 10000 nM at HDAC1 and 80 nM at HDAC6 human recombinant.
Taken in the same sequence, the figures for `CN1CCC(n2c(=O)n(Cc3ccc(-c4nnc(C(F)F)o4)cc3F)c3cc(-c4cccc(F)c4)ccc32)CC1` [Compound 120, 3-(4-(5-(difluoromethyl)-1,3,4-oxadiazole-2-yl)-2-fluorobenzyl)-5-(3-fluorophenyl)-1-(1-methylpiperidine-4-yl)-1,3-dihydro-2H-benzo[d]imidazole-2-one] were greater than 10000 nM and 1310 nM.
For `CN1CCC(n2c(=O)n(Cc3ccc(-c4nnc(C(F)F)o4)cc3F)c3cc(-c4cc(F)ccc4F)ccc32)CC1` [Compound 121, 3-(4-(5-(difluoromethyl)-1,3,4-oxadiazole-2-yl)-2-fluorobenzyl)-5-(2,5-difluorophenyl)-1-(1-methylpiperidine-4-yl)-1,3-dihydro-2H-benzo[d]imidazole-2-one] the same measures were greater than 10000 nM and 3150 nM.
For `CN1CCC(n2c(=O)n(Cc3ccc(-c4nnc(C(F)F)o4)cc3F)c3cc(-c4ccc(C(F)(F)F)cc4)ccc32)CC1` [Compound 122, 3-(4-(5-(difluoromethyl)-1,3,4-oxadiazole-2-yl)-2-fluorobenzyl)-1-(1-methylpiperidine-4-yl)-5-(4-(trifluoromethyl)phenyl)-1,3-dihydro-2H-benzo[d]imidazole-2-one] the same measures were greater than 10000 nM and greater than 5000 nM.
As to `Cc1ccc(-c2ccc3c(c2)n(Cc2ccc(-c4nnc(C(F)F)o4)cc2F)c(=O)n3C2CCN(C)CC2)o1` [Compound 124, 3-(4-(5-(difluoromethyl)-1,3,4-oxadiazole-2-yl)-2-fluorobenzyl)-5-(5-methylfuran-2-yl)-1-(1-methylpiperidine-4-yl)-1,3-dihydro-2H-benzo[d]imidazole-2-one], the IC50 is greater than 10000 nM at HDAC1 and 950 nM on HDAC6 human recombinant.
Taken in the same sequence, the figures for `CN1CCC(n2c(=O)n(Cc3ccc(-c4nnc(C(F)F)o4)cc3F)c3cc(-c4cccnc4)ccc32)CC1` [Compound 125, 3-(4-(5-(difluoromethyl)-1,3,4-oxadiazole-2-yl)-2-fluorobenzyl)-1-(1-methylpiperidine-4-yl)-5-(pyridine-3-yl)-1,3-dihydro-2H-benzo[d]imidazole-2-one] were greater than 10000 nM and 602 nM.

For orientation: IC50 means the midpoint of a concentration-inhibition curve.
